Test results taken from patent US4760023A, “[21-leucine] human urogastrone, corresponding gene, corresponding recombinant plasmid, transformed cell and process for production thereof” (Wakunaga Seiyaku Kabushiki Kaisha, priority 1983, dated 1988).
Each block holds one substance with its values, some of them ahead of it.

Tests used:
mouse 3T3 cells [1] = test: Bioassay of activity stimulating thymidine incorporation; type: cell-based; conditions: for 3H-Thymidine In-take Amount cpm: 18 hours; for 3H-Thymidine In-take Amount Δcpm: minus no addition
Procedure: Incorporation of thymidine was determined according to a modification of the method of Aharon Aharonov et al [J.B.C., 253, 3970 (1978)] and the method of Jimenez de Asua et al [PNAS, 72, 2724 (1975)]. More specifically, 6×10^3 of mouse 3T3 cells were seeded in 0.5 ml of 5% FBS-DME medium in a multi-well dish, and culturing was done for 5 days to grow as monolayers to sub-confluency. The medium was removed, and the cells were washed with PBS, and 0.5 ml of 0.5% FBS-DME medium was added. Incubation was done overnight. Then, 0.5 ml of 0.5% FBS-DME medium containing [21-L] hUG at a predetermined concentration or mEGF was added, and incubation was further continued for 18 hours. Then, 200 nci of [^3 H]-thymidine was added, and incubation was carried out at 55° C. for 30 minutes. The cells were washed twice with cold HBSS containing 20 mM Hepes (pH 7.4) and washed twice with 5% TCA. Then, 200 μl of 1N NaOH was added, and incubation was carried out at 55° C. for 30 minutes to dissolve DNA. Then, 50 μl of the DNA solution was taken and 25 μl of 2N HCl was added for neutralization. The radio-activity of Thymidine was measured by means of a liquid scintillation counter.

mouse 3T3 cells [2] = test: Bioassay of activity promoting proliferation of mouse 3T3 cells (viable cell count); type: cell-based; conditions: 4 days, 0.5% FBS-DME, FIG. 3
Procedure: The activity of promoting proliferation of cells was determined by the following procedure. More specifically, monolayer culturing of mouse 3T3 cells was carried out in a 25-cm^2 flask, and the cells were treated with calcium- and magnesium-free HBSS (CMF-HBSS) containing 0.02% of EDTA and 0.05% of trypsin to prepare cell suspensions. The cells were washed with CMF-HBSS and resuspended in DME medium containing 0.5% of fetal bovine serum (FBS), and the number of viable cells was counted. The cell suspension was diluted with 0.5% FBS-DME medium so that the cell number was 2×10^4 per ml. Then, 1 ml of the cell suspension was seeded per 35 mm dish and incubation was carried out overnight in a CO2 incubator. Peptide fractions containing different concentrations of [21-L] hUG and mEGF as a control were dissolved in 0.5% FBS-DME medium and the mixtures were filtered by a Millipore filter (type GV, wpo 2500), and 1 ml aliquots of the mixtures were added to the above cell suspension. Incubation was carried out for 4 days in a CO2 incubator (5% CO2 -95% air, 37° C.). Viable cells were stained with Trypan Blue, and the number of the viable cells was counted using a counting chamber. […]

[3] = test system: ulcer caused by ligation of the pylorus; test: Inhibitory effect on generation of stomach ulcer (pylorus ligation); type: in vivo, rats of the Wister strain; conditions: rat
Procedure: The inhibitory effect of [21-L] hUG on generation of ulcer was examined on the basis of the activity of EGF of anti-gastric acid secretion [Gut, 16, 887 (1975)].
7-weeks-old male rats of the Wister strain were bred and caused to fast for 24 hours before ligation of the pylorus. The pylorus was ligated for 17 hours, and ulcer was caused by fasting and abstinence from drinking. The peptide fraction containing [21-L] hUG (corresponding to 500 μg of the protein) or physiological saline as a control was hypodermically injected 30 minutes before ligation of the pylorus. Each group tested consisted of 5 rats, and the anti-ulcer action was evaluated by calculating the ulcer index. More specifically, the long and short diameters of the olcerous erosion generated by ligation of the pylorus were measured under an anatomical microscope, and the sum of products of the long and short diameters per rat was defined as the ulcer coefficient.

KB cell EGF receptor = target: T1, KB cell EGF receptor (Homo sapiens, UniProt P00533); test: Radioreceptor assay (RRA) using KB cells, competition with 125I-mEGF; type: binding; conditions: FIG. 2
T1 construct: endogenous in cells; host or cells: KB cells (ATCC No. CCL17), intact cells in suspension
Procedure: RRA of [21-L] hUG was carried out using KB cells (ATCC No. CCL17) derived from a human nasopharyngeal epidermoid carcinoma in the light of the process of A. King et al [see J.B.C., 257, 3053 (1982)]. More specifically, monolayer culturing was carried out in DME medium in a 800-ml flask. The culture medium was removed, and cells were peeled with a phosphate buffer salt solution (PBS) containing 0.05% of EDTA to prepare a cell suspension. Then, the cells were washed 2 times with Hank's balanced salt solution (HBSS) containing 20 mM Hepes (pH 7.4). Then, the cells were suspended in a binding solution (DME medium, 20 mM Hepes, pH 7.4, 0.35 g/l of NaHCO3 and 100 μg/ml of Streptomycin), and the cell number was calculated and the cell density was adjusted to from 300,000 to 400,000 per 0.2 ml of the binding solution. The suspension was poured into tubes (0.2 ml in each tube), and 0.2 ml each of sample containing [21-L] hUG and ^125 I-mEGF (mouse EGF) at various concentrations were added into the tubes, respectively. Incubation was carried out at 37° C. for 1 hour. The cells were washed 3 times with ice-cold HBSS and suspended in 10% TCA, and the cells were separated from the solution by filtration through a glass filter. TCA was removed with acetone, and counting of radioactivity associated with the cells was performed by using a scintillation counter. […]

mouse 3T3 cell = target: T2, mouse 3T3 cell (Mus musculus, UniProt Q01279); test: RRA using mouse 3T3 cell; type: binding
T2 construct: endogenous in cells; host or cells: mouse 3T3 cells
Procedure: RPA using mouse 3T3 cell was carried out according to the process of C.

Substance: mouse epidermal growth factor (NSYPGCPSSYDGYCLNGGVCMHIESLDSYTCNCVIGYSGDRCQTRDLRWWELR; not fully specified; Epidermal growth factor; UniProt P01132 977-1029, looked up) [mEGF, mEGF (Toyobo, Japan), used for comparison]
- 3H-Thymidine In-take Amount cpm (mouse 3T3 cells [1]; 1 ng/ml): 14,510.5 cpm
- 3H-Thymidine In-take Amount Δcpm (mouse 3T3 cells [1]; 1 ng/ml): 9,871.0 cpm
- 3H-Thymidine In-take Amount cpm (mouse 3T3 cells [1]; 2 ng/ml): 13,387.4 cpm
- 3H-Thymidine In-take Amount Δcpm (mouse 3T3 cells [1]; 2 ng/ml): 8,747.9 cpm
- 3H-Thymidine In-take Amount cpm (mouse 3T3 cells [1]; 5 ng/ml): 14,695.2 cpm
- 3H-Thymidine In-take Amount Δcpm (mouse 3T3 cells [1]; 5 ng/ml): 10,055.7 cpm
- 3H-Thymidine In-take Amount cpm (mouse 3T3 cells [1]; 10 ng/ml): 14,094.6 cpm
- 3H-Thymidine In-take Amount Δcpm (mouse 3T3 cells [1]; 10 ng/ml): 9,455.1 cpm

- inhibition of binding of 125I-mEGF to the KB cell EGF receptor (KB cell EGF receptor; 37° C., 1 hour): competitively inhibits binding
- dosage-response curve in RRA compared with mEGF (KB cell EGF receptor): in good agreement with that of mEGF
Substance: [21-leucine] human urogastrone (NSDSECPLSHDGYCLHDGVCLYIEALDKYACNCVVGYIGERCQYRDLKWWELR; Epidermal growth factor; UniProt P01133 971-1023, looked up, variant M21L) [[21-L] hUG, 53-residue polypeptide, same as hUG except that the 21st amino acid is Leu; produced in E. coli, released by cyanogen bromide]
- dose-response curve of cell proliferation compared with mEGF (mouse 3T3 cells [2]): in good agreement with the curve for mEGF
- 3H-Thymidine In-take Amount cpm (mouse 3T3 cells [1]; 0.73 μg/ml): 17,170.8 cpm
- 3H-Thymidine In-take Amount Δcpm (mouse 3T3 cells [1]; 0.73 μg/ml): 12,531.3 cpm
- 3H-Thymidine In-take Amount cpm (mouse 3T3 cells [1]; 1.46 μg/ml): 11,761.7 cpm
- 3H-Thymidine In-take Amount Δcpm (mouse 3T3 cells [1]; 1.46 μg/ml): 7,122.2 cpm
- 3H-Thymidine In-take Amount cpm (mouse 3T3 cells [1]; 2.93 μg/ml): 13,567.0 cpm
- 3H-Thymidine In-take Amount Δcpm (mouse 3T3 cells [1]; 2.93 μg/ml): 8,927.5 cpm
- thymidine incorporation (in words) (mouse 3T3 cells [1]; mouse 3T3 cells): promotes greatly thymidine incorporation
- Ulcer Coefficient ([3]; 500 μg of the protein hypodermically 30 minutes before ligation, pylorus ligated 17 hours): 44.5 ± 18.0 mm^2
- generation of the ulcer (in words) ([3]; pylorus ligation): tends to inhibit generation of the ulcer
- RRA result using mouse 3T3 cell (mouse 3T3 cell): results similar to the results obtained in RRA using KB cell
